This note sets out measurements from PMC11124336 (Molecules, 2024).

Data set [1] concerns the target T1, Type II NADH dehydrogenase (NDH-2, NdhC) (Staphylococcus aureus, UniProt Q2FZV7).
T1 construct: gene SAOUHSC_00878; N-terminal 6His-tagged NDH-2 (ndhC gene from S. aureus 25923)
T1 sequence (Q2FZV7 1-402): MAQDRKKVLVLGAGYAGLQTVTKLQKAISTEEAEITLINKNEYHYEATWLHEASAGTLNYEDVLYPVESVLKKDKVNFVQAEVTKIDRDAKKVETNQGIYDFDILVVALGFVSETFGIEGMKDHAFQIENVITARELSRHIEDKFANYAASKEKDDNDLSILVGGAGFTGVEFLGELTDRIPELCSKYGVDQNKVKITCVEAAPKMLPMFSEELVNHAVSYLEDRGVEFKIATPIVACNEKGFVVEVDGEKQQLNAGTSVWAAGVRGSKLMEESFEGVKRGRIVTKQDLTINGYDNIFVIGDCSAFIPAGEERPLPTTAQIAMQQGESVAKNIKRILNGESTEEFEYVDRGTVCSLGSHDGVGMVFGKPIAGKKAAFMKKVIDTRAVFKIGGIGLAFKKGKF
Kind of data set: NADH oxidation assay at […] nm with menadione. Type of data set: biochemical.

For data set [2], the target named is T1, Type II NADH dehydrogenase (NDH-2, NdhC). Kind of data set: activity of FAD-depleted purified enzyme restored by added FAD. The format is biochemical.
Substrate in data set [3]: NC(=O)C1=CN([C@@H]2O[C@H](COP(=O)(O)OP(=O)(O)OC[C@H]3O[C@@H](n4cnc5c(N)ncnc54)[C@H](O)[C@@H]3O)[C@@H](O)[C@H]2O)C=CC1
Briefly: steady-state kinetics of purified enzyme (Km). Type of data set: biochemical, Staphylococcus aureus. Particulars: FAD.

Substrate in data set [4]: CC1=CC(=O)c2ccccc2C1=O
Kind of data set: steady-state kinetics of purified enzyme (Km). The format is biochemical, Staphylococcus aureus. The conditions noted are these: FAD.

The IC50 is the concentration needed to halve the response being measured. Low readings indicate inhibition by little substance, high ones a need for much substance. In general, Km refers to the substrate concentration at which the rate is half of its maximum.

For `CCCCCCCc1cc(O)c2ccccc2[n+]1[O-]` [HQNO, 2-heptyl-4-hydroxyquinoline-N-oxide], inhibition in data set [1] was half-maximal at 9 µM (IC50).

For the molecule `Cc1cc2nc3c(=O)[nH]c(=O)nc-3n(C[C@H](O)[C@H](O)[C@H](O)COP(=O)(O)OP(=O)(O)OC[C@H]3O[C@@H](n4cnc5c(N)ncnc54)[C@H](O)[C@@H]3O)c2cc1C` [FAD], the “activity of FAD-depleted purified enzyme restored by added FAD” value in data set [2] is reported as “the addition of exogenous FAD to the reaction mix restored the NADH dehydrogenase activity of the recombinant protein”.

B1: Type II NADH dehydrogenase (NDH-2, NdhC) (Staphylococcus aureus subsp. aureus NCTC 8325) (protein)
chain: MAQDRKKVLVLGAGYAGLQTVTKLQKAISTEEAEITLINKNEYHYEATWLHEASAGTLNYEDVLYPVESVLKKDKVNFVQAEVTKIDRDAKKVETNQGIYDFDILVVALGFVSETFGIEGMKDHAFQIENVITARELSRHIEDKFANYAASKEKDDNDLSILVGGAGFTGVEFLGELTDRIPELCSKYGVDQNKVKITCVEAAPKMLPMFSEELVNHAVSYLEDRGVEFKIATPIVACNEKGFVVEVDGEKQQLNAGTSVWAAGVRGSKLMEESFEGVKRGRIVTKQDLTINGYDNIFVIGDCSAFIPAGEERPLPTTAQIAMQQGESVAKNIKRILNGESTEEFEYVDRGTVCSLGSHDGVGMVFGKPIAGKKAAFMKKVIDTRAVFKIGGIGLAFKKGKF
notes: N-terminal 6His-tagged NDH-2 (ndhC gene from S. aureus 25923)
Regarding B1, the Km in data set [3] is 90.8 ± 16.2 µM; in data set [4], 19.9 ± 0.7 µM.
